From US6495569B1, “Imidazolidine compounds” (Millennium Pharmaceuticals, Inc., priority 2001, dated 2002)

Molecular target: T1, CXCR3 (Homo sapiens, UniProt P49682)
T1 construct: expressed in transfected cells; membrane preparation
T1 sequence (P49682 1-368): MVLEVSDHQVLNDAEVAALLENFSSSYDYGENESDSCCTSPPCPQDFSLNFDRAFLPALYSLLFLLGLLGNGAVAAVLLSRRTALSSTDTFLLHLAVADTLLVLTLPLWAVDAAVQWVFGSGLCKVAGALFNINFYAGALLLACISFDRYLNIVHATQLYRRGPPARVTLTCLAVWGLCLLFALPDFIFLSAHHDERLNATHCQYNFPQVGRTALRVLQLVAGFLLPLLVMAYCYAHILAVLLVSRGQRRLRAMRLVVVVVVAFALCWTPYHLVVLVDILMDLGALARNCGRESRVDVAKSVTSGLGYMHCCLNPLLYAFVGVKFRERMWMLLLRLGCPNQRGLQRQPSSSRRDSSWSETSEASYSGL
Test: CXCR3/IP-10 radioligand binding assay (125I-IP-10 competition on CXCR3.L1/2 cell membranes)
Details: test compound 10 μmol/L; 125I-labeled IP-10 0.05 to 0.2 nmol/L; CXCR3.L1/2 transfectant cell membranes; 60 min at room temperature
Excerpt: The activity of the compounds of the present invention can be assessed using a suitable assay, such as a receptor binding assay, a chemotaxis assays, an extracellular acidification assay or a calcium flux assay (see, for example, Hesselgesser et al., J. Biol. Chem. 273(25):15687-15692 (1998) and WO 98/02151). For example, as described herein, small organic molecule antagonists of CXCR3/IP-10 binding have been identified utilizing cells engineered to express recombinant human CXCR3 (CXCR3.L1/2) and which bind ^125I-IP10 and chemotax in response to IP-10, Mig or I-TAC. Specifically, a high through-put receptor binding assay, which monitors ^125I-IP10 binding to CXCR3.L1/2 cell membranes, was used to identify small molecule antagonists which block binding of IP-10, Mig or I-TAC to CXCR3.
CXCR3.L1/2 cells were pelleted by centrifugation and stored at −80° C.. The cells were lysed by thawing and resuspending at about 1.5×10^7 cells/ml in a hypotonic buffer (5 mmol/L HEPES (pH 7.2), 2 mmol/L EDTA, 10 μg/ml each leupeptin, aprotinin, and chymostatin, and 100 μg/ml PMSF (all from Sigma, St. Louis)). Nuclei and cellular debris was removed by centrifugation ([…], at 4° C.) for 10 min. The supernatant was transferred to chilled centrifuge tubes (Nalge, Rochester, N.Y.) and the membrane fraction was recovered by centrifugation (25,000 g at 4° C.) for 45 min. The membrane pellet was resuspended in freezing buffer (10 mM HEPES (pH 7.2), 300 mmol/L Sucrose, 5 μg/ml each of leupeptin, aprotinin, and chymostatin, and 10 μg/ml PMSF). The total protein concentration was determined using a coomassie blue staining protein concentration assay kit (BioRad). The membrane preparation was aliquoted and stored at −80° C. until time of use.
CXCR3/IP-10 binding was performed in 96-well polypropylene plates (Costar) in a final volume of 0.1 ml of HBB buffer (50 mmol/L Hepes pH 7.4, 1 mmol/L CaCl2, 5 mmol/L MgCl2, 0.02% sodium azide, 0.5% BSA (bovine serum albumin)) containing 1 to 5 μg of CXCR3.L1/2 transfectant cell membrane protein and 0.05 to 0.2 nmol/L ^125I-labeled IP-10 (NEN, Boston, Mass.). Competition binding experiments were performed by including variable concentrations of unlabeled IP-10 or test compound. Nonspecific binding was determined following the addition of a 250 nmol/L unlabelled IP-10. Samples were incubated for 60 min at room temperature, and bound and free tracer (^125I-IP10) were separated by filtration through 96-well GF/B filterplates (Packard) presoaked in 0.3% polyethyleneimine. The filters were washed in HBB further supplemented with 0.5 mol/L NaCl, dried, and the amount of bound radioactivity determined by liquid scintillation counting. The competition is presented as the percent specific binding as calculated by 100×[(S−B)/(T−B)], where S is the radioactivity bound for each sample, B is background binding, and T is total bound in the absence of competitors. Duplicates were used throughout the experiments.

In order of rising “% inhibition at 10 μmol/L” value:
1. 1-{2-(3-Piperidinomethylbenzylthio)ethyl}-3-(2,3-methylenedioxybenzyl)-2-imidazolidinylidenepropanedinitrile [Compound 6]  84%
2. N#CC(C#N)=C1N(CCCc2ccccc2)CCN1CCSCc1cccc(CN2CCCCC2)c1 [Compound 10, 1-{2-(3-Piperidinomethylbenzylthio)ethyl}-3-(3-phenylpropyl)-2-imidazolidinylidenepropanedinitrile]  86%
3. Cc1cccc(CN2CCN(CCSCc3cccc(CN4CCCCC4)c3)C2=C(C#N)C#N)c1C [Compound 3, 1-{2-(3-Piperidinomethylbenzylthio)ethyl}-3-(2,3-dimethylbenzyl)-2-imidazolidinylidenepropanedinitrile]  91%
4. 1-{2-(3-Piperidinomethylbenzylthio)ethyl}-3-(1-naphthoyl)-2-imidazolidinylidenepropanedinitrile [Compound 7]  93%
5. N#CC(C#N)=C1N(CCSCc2ccc(CN3CCCCC3)cc2)CCN1Cc1cccc2ccccc12 [Compound 2, 1-{2-(4-Piperidinomethylbenzylthio)ethyl}-3-(1-naphthylmethyl)-2-imidazolidinylidenepropanedinitrile]  94%
6. 1-{2-(3-Piperidinomethylbenzylthio)ethyl}-3-(1-acenaphthenyl)-2imidazolidinylidenepropanedinitrile [Compound 4]  95%
7. 1-{2-(3-Piperidinomethylbenzylthio)ethyl}-3-{1-(8-methylnaphthyl)methyl}-2-imidazolidinylidenepropanedinitrile [Compound 11]  96%
8. N#CC(C#N)=C1N(CCSCc2cccc(CN3CCCCC3)c2)CCN1Cc1cccc2ccccc12 [Compound 1, 1-{2-(3-Piperidinomethylbenzylthio)ethyl}-3-(1-naphthylmethyl)-2-imidazolidinylidenepropanedinitrile]  108%
